Legend:
[1] = test system: diethyl nitrosamine (DEN) cirrhotic rat model of liver fibrosis; experiment: DEN induced cirrhosis in rats, study 2: Sirius red quantification of liver fibrosis; type: in vivo; conditions: group 4 (20/15): 20 mg/kg/day p.o. 4 weeks then 15 mg/kg/day 3 weeks; p=0.03
Procedure: A second in vivo experiment, with the same diethyl nitrosamine (DEN) cirrhotic rat animal model of liver fibrosis, was performed including compound 2-2 (base form of compound 2-3) with discontinued oral dosing schedule and compound 5-3 with daily oral exposure. Compounds 2-2 and 5-3 were administered p.o. by gavage (oral gavage) once daily during 7 weeks.
Rats were treated with DEN for 13 weeks (intra-peritoneal injections (i.p.) of 50 mg/kg/week) and then treated according to the Table 10 dosage schedule during 7 weeks. At the end of the study, all animals were sacrificed using CO2 and rat livers were collected for analysis. The quantification of the liver fibrotic tissue was evaluated by Sirius red staining of rat liver sections.
Group 1 contained 6 animals which were daily dosed (q.d.) by oral gavage (per os, p.o.) with the vehicle during 7 weeks.
Group 2 contained 8 animals and the corresponding animals were daily dosed (q.d.) by oral gavage (per os, p.o.) with compound 2-2 during 4 weeks at 20 mg/kg/day and then during 3 weeks at 20 mg/kg every 2 days (q.o.d.: quaque altera die, one day treated, on day untreated).
Group 3 contained 8 animals and the corresponding animals were daily dosed (q.d.) by oral gavage (per os, p.o.) with compound 2-2 during 3 weeks at 20 mg/kg/day, then 2 weeks of treatment free period, and were then daily dosed (q.d.) by oral gavage (per os, p.o.) with compound 2-2 during 2 weeks at 20 mg/kg/day.
Group 4 contained 8 animals and the corresponding animals were daily dosed (q.d.) by oral gavage (per os, p.o.) with compound 5-3 during 4 weeks at 20 mg/kg/day, and were then daily dosed (q.d.) by oral gavage (per os, p.o.) with compound 5-3 during 3 weeks at 15 mg/kg/day.
Compound 2-2 and 5-3 were formulated in water for injection acidified with hydrochloric acid to pH 4.

[2] = test system: diethyl nitrosamine (DEN) cirrhotic rat model of liver fibrosis; experiment: DEN induced cirrhosis in rats, study 1: Sirius red quantification of liver fibrosis; type: in vivo; conditions: group 2: Sorafenib 10 mg/kg/day p.o. q.d., 6 weeks after 14 weeks DEN
From the text: This animal model allows developing an extensive liver fibrosis, leading to a compensated liver cirrhosis with a multifocal hepatocarcinoma (HCC) after 14 weeks of induction (Schiffer, E. et al. Hepatology 2005 (41), 307-314). The DEN cirrhotic rat animal model was used here as a specific animal model of liver fibrosis.
Forty two Fisher 344 male rat (obtained from Charles River Laboratories France, including spare animals), weighting approximately 280 g at the start of the study, were randomized in 5 groups of 8 (groups 1, 2, 3 and 5) or 6 (group 4) animals and housed with 3 animals per cage, given free access to food and water and allowed to acclimate for at least 5 days prior to test initiation.
The DEN cirrhotic rat model was obtained after 14 weekly intraperitoneal injections of DEN (intra-peritoneal injections (i.p.) of DEN at 50 mg/kg/week). The animals were then treated according to Table 9 during 6 weeks. In this in vivo experiment, the anti-fibrotic activity of compound 2-3 was evaluated in liver fibrosis animal model, alone or in combination with Sorafenib (a multikinase inhibitor of Raf-1, B-Raf, VEGFR-2, VEGFR3, PDGFRβ, Flt3 and c-Kit). After 6 weeks of treatment, all animals were sacrificed using CO2 and rat livers were collected for analysis. The quantification of the liver fibrotic tissue was evaluated by Sirius red staining of rat liver sections.
Group 1 contained 8 animals which were daily dosed (q.d.) by oral gavage (per os, p.o.) with the vehicle during 6 weeks.
Group 2 contained 8 animals which were daily dosed (q.d.) by oral gavage (per os, p.o.) with Sorafenib at 10 mg/kg/day during 6 weeks.
Group 3 contained 8 animals which were daily dosed (q.d.) by oral gavage (per os, p.o.) with compound 2-3 at 15 mg/kg/day during 6 weeks.
Group 4 contained 6 animals which were daily dosed (q.d.) by oral gavage (per os, p.o.) with compound 2-3 at 15 mg/kg/day in combination with Sorafenib at 10 mg/kg/day during 6 weeks.
Group 5 contained 8 animals which were daily dosed (q.d.) by oral gavage (per os, p.o.) with compound 2-3 at 30 mg/kg/day during 6 weeks. […]

[3] = molecular target: T1, cathepsin B (CTSB) (Homo sapiens, UniProt P07858); experiment: Cathepsin B (CTSB) catalytic activity in lysates of treated HepG2 cells (Z-RR-AMC substrate); type: cell-based; conditions: HepG2; 7.5 μM, 6 hours and 24 hours
T1 construct: endogenous in cells; host or cells: HepG2
Procedure: (§1) Lysosomal functions was investigated in a hepatocellular carcinoma (HCC) cell line HepG2 after 6 hours and 24 hours of treatment with compound 2-3 (the hydrochloride salt form of compound 2-2) using functional assays of some lysosomal enzymes activity: two cysteine proteinases: cathepsin B (CTSB) and cathepsin L (CTSL), and one aspartic proteinase: cathepsin D (CTSD). Two sets of three concentrations of compound 2-3 (1 μM, 2 μM, and 4 μM for 6 hours, and 0.5 μM, 1 μM and 2 μM for 24 hours) were tested at least in triplicate and four independent experiments were performed. Salinomycin (7.5 μM for 6 hours and 24 hours) was used as a positive control.
(§2) The HepG2 cell line was maintained in DMEM (Dulbecco's Modified Eagle Media) high glucose (Cat #L0103-500, Dutscher) containing 1% penicillin-streptomycin (Cat #P06-07100, Dutscher) and 10% FBS (Fetal Bovine Serum) (Cat #11543407, Life Technologies). Cells were cultured at 37° C. with 5% CO2.
(§3) The day before the experiment, 6-well plates (Cat #353046, Dutscher) with 250,000 cells in 2.7 mL of medium per well were prepared.
(§4) Compound 2-3 was dissolved with filtrated H2O mQ to make a 10 mM stock solution and serial working solutions (10× solutions) were prepared with the diluent (=culture medium with 0.4% H2O mQ) at 5 μM, 10 μM, 20 μM and 40 μM: the “dilution 1” is made from the 10 mM stock solution in the culture medium and the following serial dilutions were made in the diluent to maintain a constant percentage of H2O.
(§5) Salinomycin [CAS 53003-10-4] was used as positive control and was dissolved with methanol to make a 10 mM stock solution and a 10× solution at 75 μM was prepared with the culture medium.
(§6) 300 μL of compound 2-3 10× solutions (solutions at 10 μM, 20 μM and 40 μM for 6 hours of treatment and solutions at 5 μM, 10 μM and 20 μM for 24 hours of treatment) or 300 μL of diluent (=non-treated (NT) condition) or 300 μL of Salinomycin 10× solution were dispensed in the appropriate wells (4 wells/condition). After cells treatment, 6-well plates were returned to incubator for 6 hours or 24 hours.
(§7) After 6 hours or 24 hours of cells treatment, the medium was removed from each well. The cells were carefully rinsed with PBS (phosphate-buffered saline, Cat #L0615-500, Dutscher) and detached with 500 μL per well of a trypsin solution. After 5 min of trypsin (Cat #L0930-100, Dutscher) incubation at 37° C., 800 μL of medium was added per well and transferred to a 1.5 mL tube. Then, 800 μL of PBS was used to rinse each well and the corresponding solution was pooled in each corresponding 1.5 mL tube. […] Total protein concentration was assessed using the Bradford reagent (Cat #B6916-500ML, Sigma-Aldrich) and cellular lysates were stored at −80° C. until catalytic activity measurement. […]

[4] = test system: cathepsins B and L (CTSB/L); experiment: Overall cathepsins B and L (CTSB/L) peptidase activity in lysates of treated HepG2 cells (Z-FR-AMC substrate); type: cell-based; conditions: HepG2; 7.5 μM, 6 hours and 24 hours
Procedure: as §1, §2, §3, §4, §5, §6, §7

[5] = molecular target: T2, cathepsin D (CTSD) (Homo sapiens, UniProt P07339); experiment: Cathepsin D (CTSD) peptidase activity in lysates of treated HepG2 cells (MOCAc quenched fluorogenic substrate); type: cell-based; conditions: HepG2; 7.5 μM, 6 hours and 24 hours
T2 construct: cell lysates (1 μg of total proteins) were pre-incubated with citrate buffer pH 4.0; endogenous in cells; host or cells: HepG2
Procedure: as §1, §2, §3, §4
Salinomycin [CAS 53003-10-4] was used as positive control and was dissolved with methanol to make a 10 mM stock solution and a 10× solution at 75 μM was prepared with the culture medium. […]
After 6 hours or 24 hours of cells treatment, the medium was removed from each well. […] Total protein concentration was assessed using the Bradford reagent (Cat #B6916-500ML, Sigma-Aldrich) and cellular lysates were stored at −80° C. until catalytic activity measurement. […]

T2 sequence (P07339 65-412): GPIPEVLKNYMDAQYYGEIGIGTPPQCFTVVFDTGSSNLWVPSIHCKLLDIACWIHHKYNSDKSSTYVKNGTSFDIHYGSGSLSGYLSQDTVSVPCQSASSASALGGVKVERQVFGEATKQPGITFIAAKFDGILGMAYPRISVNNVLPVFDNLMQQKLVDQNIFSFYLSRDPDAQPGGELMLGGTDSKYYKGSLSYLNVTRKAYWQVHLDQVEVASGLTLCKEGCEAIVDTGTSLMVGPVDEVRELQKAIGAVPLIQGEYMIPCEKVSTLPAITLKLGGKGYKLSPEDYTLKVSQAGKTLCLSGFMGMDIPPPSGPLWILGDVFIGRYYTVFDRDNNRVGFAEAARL

CC(C)(C)NC1CCN(c2cc(NCc3ccc(F)cc3)nc3ccccc23)CC1 [5-3, 2-(4-fluorobenzylamino)-4-(4-tert-butylaminopiperidin-1-yl)-quinoline]
reduction of the level of collagen fibers deposition (Sirius red) compared to the control group [1]: 24%

CNC(=O)c1cc(Oc2ccc(NC(=O)Nc3ccc(Cl)c(C(F)(F)F)c3)cc2)ccn1 [Sorafenib, reference compound]
reduction of the level of collagen fibers deposition (Sirius red) compared to the control group [2]: 13.6%

CC[C@@H](C(=O)[C@@H](C)[C@@H](O)[C@H](C)[C@@H]1O[C@@H]([C@@H](CC)C(=O)O)CC[C@@H]1C)[C@H]1O[C@]2(C=C[C@@H](O)[C@]3(CC[C@@](C)([C@H]4CC[C@](O)(CC)[C@H](C)O4)O3)O2)[C@H](C)C[C@@H]1C [Salynomycin, Salinomycin, reference compound]
proteolytic activity of cathepsin B (positive control) [3]: significantly decreased
proteolytic activity of cathepsins B/L (positive control) [4]: significantly decreased
proteolytic activity of cathepsin D (positive control) [5]: significantly decreased

From US11261189B2, “Substituted 2,4 diamino-quinoline as new medicament for fibrosis, autophagy and cathepsins B (CTSB), L (CTSL) and D (CTSD) related diseases” (Genoscience Pharma, priority 2018, dated 2022)
